Experimental data reported in patent publication US20170071944A1, “MODULATORS OF TOLL-LIKE RECEPTORS FOR THE TREATMENT OF HIV” (Gilead Sciences, Inc., priority 2015, published 2017).

Test system: PBMC cultures from HIV-1 infected subjects on cART
Experiment: Induced cytokines and chemokines in PBMC cultures from HIV-1 infected subjects on cART (multiplexed Luminex)
Assay type: cell-based, human
Settings: for I-TAC Fold vs DMSO / IFN-α / IFN-α Fold vs DMSO / IFN-γ / IFN-γ Fold vs DMSO / IL-6 pg/ml / IL-8 pg/ml / IL-10 pg/ml / IL-18 pg/ml / IL-23 pg/ml / IL-1RA / IL-1RA Fold vs DMSO / IL-1β / IL-1β Fold vs DMSO / IL-6 Fold vs DMSO / IL-8 Fold vs DMSO / IL-10 Fold vs DMSO / IL-12p70 pg/ml / IL-12p70 Fold vs DMSO / IL-18 Fold vs DMSO / IL-23 Fold vs DMSO / IP-10 pg/ml / IP-10 Fold vs DMSO / MCP-1 pg/ml / MCP-1 Fold vs DMSO / MIP-1α / MIP-1α Fold vs DMSO / MIP-1β / MIP-1β Fold vs DMSO / MIP-3α / MIP-3α Fold vs DMSO / MMP-1 pg/ml / MMP-1 Fold vs DMSO / TNF-α / TNF-α Fold vs DMSO / GRO-α / GRO-α Fold vs DMSO / Granzyme B / Granzyme B Fold vs DMSO / I-TAC: day 2, geometric mean, 4 subjects
Procedure: To further characterize the immune modulatory effect of TLR8 agonists in cells from HIV-infected subjects, the production of secreted cytokines and chemokines was measured in PBMCs from 4 HIV-infected subjects on suppressive cART (anonymized participant IDs 180-183). PBMCs were purified, as described in Example 121, and immediately added to tissue culture plates pre-equilibrated at 37° C. with media containing DMSO (vehicle control) or with the TLR8 modulating compound Example 15 at concentrations ranging from 1.0 nM to 10.0 μM. On day 2 after treatment, cell-free culture supernatants were collected and frozen at −80 C for subsequent analysis. Frozen supernatants were thawed at room temperature, and the indicated cytokines and chemokines were quantified with a custom multiplexed xMAP Luminex® assay following the manufacturer's instructions (Thermo Fisher Scientific Inc., Grand Island, N.Y., custom-designed kit).
Data are expressed as geometric mean cytokine values (pg/ml) obtained from 4 subjects' PBMCs. Geometric mean fold-activation from three independent incubation samples for each condition. Fold (fold-activation) is calculated as a ratio of the concentration of cytokine detected in cell culture supernatants from agonist treated samples relative to DMSO treated samples

## CCCC[C@H](CO)Nc1nc(N)nc2cccnc12 [Example 15]
Ex 15 1000 nM
  I-TAC Fold vs DMSO: 2 fold
  IFN-α: 6 pg/mL
  IFN-α Fold vs DMSO: 3 fold
  IFN-γ: 5693 pg/mL
  IFN-γ Fold vs DMSO: 228 fold
  IL-6 pg/ml: 22600 pg/mL
  IL-8 pg/ml: 1565 pg/mL
  IL-10 pg/ml: 3719 pg/mL
  IL-18 pg/ml: 191 pg/mL
  IL-23 pg/ml: 465 pg/mL
  IL-1RA: 164731 pg/mL
  IL-1RA Fold vs DMSO: 46 fold
  IL-1β: 4735 pg/mL
  IL-1β Fold vs DMSO: 1578 fold
  IL-6 Fold vs DMSO: 290 fold
  IL-8 Fold vs DMSO: 5 fold
  IL-10 Fold vs DMSO: 219 fold
  IL-12p70 pg/ml: 524 pg/mL
  IL-12p70 Fold vs DMSO: 175 fold
  IL-18 Fold vs DMSO: 11 fold
  IL-23 Fold vs DMSO: 8 fold
  IP-10 pg/ml: 741 pg/mL
  IP-10 Fold vs DMSO: 3 fold
  MCP-1 pg/ml: 1464 pg/mL
  MCP-1 Fold vs DMSO: 22 fold
  MIP-1α: 18689 pg/mL
  MIP-1α Fold vs DMSO: 374 fold
  MIP-1β: 415739 pg/mL
  MIP-1β Fold vs DMSO: 340 fold
  MIP-3α: 1085 pg/mL
  MIP-3α Fold vs DMSO: 42 fold
  MMP-1 pg/ml: 317 pg/mL
  MMP-1 Fold vs DMSO: 3 fold
  TNF-α: 34880 pg/mL
  TNF-α Fold vs DMSO: 1661 fold
Ex 15 3000 nM
  GRO-α: 418 pg/mL
  GRO-α Fold vs DMSO: 18 fold
  Granzyme B: 857 pg/mL
  Granzyme B Fold vs DMSO: 4 fold
  I-TAC: 98 pg/mL
  I-TAC Fold vs DMSO: 2 fold
  IFN-α: 6 pg/mL
  IFN-α Fold vs DMSO: 3 fold
  IFN-γ: 3586 pg/mL
  IFN-γ Fold vs DMSO: 143 fold
  IL-6 pg/ml: 15198 pg/mL
  IL-8 pg/ml: 1139 pg/mL
  IL-10 pg/ml: 4747 pg/mL
  IL-18 pg/ml: 308 pg/mL
  IL-23 pg/ml: 1163 pg/mL
  IL-1RA: 88340 pg/mL
  IL-1RA Fold vs DMSO: 25 fold
  IL-1β: 5302 pg/mL
  IL-1β Fold vs DMSO: 1767 fold
  IL-6 Fold vs DMSO: 195 fold
  IL-8 Fold vs DMSO: 4 fold
  IL-10 Fold vs DMSO: 279 fold
  IL-12p70 pg/ml: 381 pg/mL
  IL-12p70 Fold vs DMSO: 127 fold
  IL-18 Fold vs DMSO: 18 fold
  IL-23 Fold vs DMSO: 19 fold
  IP-10 pg/ml: 711 pg/mL
  IP-10 Fold vs DMSO: 3 fold
  MCP-1 pg/ml: 1646 pg/mL
  MCP-1 Fold vs DMSO: 25 fold
  MIP-1α: 21047 pg/mL
  MIP-1α Fold vs DMSO: 421 fold
  MIP-1β: 293183 pg/mL
  MIP-1β Fold vs DMSO: 240 fold
  MIP-3α: 2141 pg/mL
  MIP-3α Fold vs DMSO: 82 fold
  MMP-1 pg/ml: 311 pg/mL
  MMP-1 Fold vs DMSO: 3 fold
  TNF-α: 64062 pg/mL
  TNF-α Fold vs DMSO: 3051 fold
Ex 15 10000 nM
  GRO-α: 433 pg/mL
  GRO-α Fold vs DMSO: 19 fold
  Granzyme B: 644 pg/mL
  Granzyme B Fold vs DMSO: 3 fold
  I-TAC: 69 pg/mL
  I-TAC Fold vs DMSO: 1 fold
  IFN-α: 4 pg/mL
  IFN-α Fold vs DMSO: 2 fold
  IFN-γ: 1478 pg/mL
  IFN-γ Fold vs DMSO: 59 fold
  IL-6 pg/ml: 18836 pg/mL
  IL-8 pg/ml: 1118 pg/mL
  IL-10 pg/ml: 5167 pg/mL
  IL-18 pg/ml: 218 pg/mL
  IL-23 pg/ml: 965 pg/mL
  IL-1RA: 90289 pg/mL
  IL-1RA Fold vs DMSO: 25 fold
  IL-1β: 6611 pg/mL
  IL-1β Fold vs DMSO: 2204 fold
  IL-6 Fold vs DMSO: 241 fold
  IL-8 Fold vs DMSO: 4 fold
  IL-10 Fold vs DMSO: 304 fold
  IL-12p70 pg/ml: 113 pg/mL
  IL-12p70 Fold vs DMSO: 38 fold
  IL-18 Fold vs DMSO: 13 fold
  IL-23 Fold vs DMSO: 16 fold
  IP-10 pg/ml: 587 pg/mL
  IP-10 Fold vs DMSO: 2 fold
  MCP-1 pg/ml: 1796 pg/mL
  MCP-1 Fold vs DMSO: 27 fold
  MIP-1α: 24365 pg/mL
  MIP-1α Fold vs DMSO: 487 fold
  MIP-1β: 239694 pg/mL
  MIP-1β Fold vs DMSO: 196 fold
  MIP-3α: 1680 pg/mL
  MIP-3α Fold vs DMSO: 65 fold
  MMP-1 pg/ml: 740 pg/mL
  MMP-1 Fold vs DMSO: 8 fold
  TNF-α: 23017 pg/mL
  TNF-α Fold vs DMSO: 1096 fold
Example 15, 1.0 nM to 10.0 μM
  Peak fold-activation relative to DMSO, IL-12p70: 518 fold
  Peak fold-activation relative to DMSO, IL-18: 18 fold
  Peak fold-activation relative to DMSO, TNF-α: 3051 fold
Example 15, 1.0 nM to 10.0 μM, did not induce at levels >2-fold
  Induction of IFN-ω, IL-2, IL-4, IL-5, IL-7, IL-15, IL-17A, IL-21, IL-27, or IL-29 compared to DMSO control: ≤ 2 fold
